Patent US11187705B2, “Method for labeling specifically living microorganisms comprising the use of modified monosaccharide compounds” (CENTRE NATIONAL DE LA RECHERCHE SCIENTIFIQUE (CNRS), priority 2015, dated 2021)

Columns and labels:
Assay type in all cases: cell-based
Staphylococcus epidermis = conditions: for labeling (fluorescence, metabolic incorporation of the chemical reporter): 10 mM, 24 hours, Laboratory strain
[1] = tested on: Listeria monocytogenes 1/2; conditions: for labeling (fluorescence, metabolic incorporation of the chemical reporter): 10 mM, 24 hours, CIP 82.110pT; for assimilation by the microorganism (in words): Listeria monocytogenes
Cronobacter sakazakii = conditions: 10 mM, 24 hours; CIP 103183T
Micrococcus luteus = conditions: for labeling (fluorescence, metabolic incorporation of the chemical reporter): 10 mM, 24 hours, Laboratory strain; for assimilation by the microorganism (in words): Micrococcus luteus
Aspergillus niger = conditions: for labeling (fluorescence, metabolic incorporation of the chemical reporter): 10 mM, 24 hours, Laboratory strain; for assimilation by the microorganism (in words): Aspergillus niger
[2] = tested on: Serratia marcescens (second entry); conditions: 10 mM, 24 hours; second Serratia marcescens line (Table 1 order: Clinical strain)
Escherichia coli O86 = conditions: 10 mM, 24 hours; Laboratory strain
[3] = tested on: Pseudomonas fluorescens Paris; conditions: 10 mM, 24 hours; Laboratory strain
Candida albicans = conditions: for labeling (fluorescence, metabolic incorporation of the chemical reporter): 10 mM, 24 hours, Laboratory strain; for assimilation by the microorganism (in words): Candida albicans
Bacillus subtilis = conditions: for labeling (fluorescence, metabolic incorporation of the chemical reporter): 10 mM, 24 hours, Laboratory strain; for assimilation by the microorganism (in words): Bacillus subtilis
Vibrio cholerae = conditions: 10 mM, 24 hours; CIP 104151
Acinetobacter baumannii = conditions: 10 mM, 24 hours; ATCC 17978
[4] = tested on: Stenotrophomonas maltophilia; conditions: 10 mM, 24 hours; Clinical strain
Enterococcus faecalis = conditions: for labeling (fluorescence, metabolic incorporation of the chemical reporter): 10 mM, 24 hours, Laboratory strain; for assimilation by the microorganism (in words): Enterococcus faecalis
[5] = tested on: Staphylococcus aureus aureus; conditions: for labeling (fluorescence, metabolic incorporation of the chemical reporter): 10 mM, 24 hours, IP 53-156; for assimilation by the microorganism (in words): Staphylococcus aureus aureus
[6] = tested on: Klebsiella pneumoniae (second entry); conditions: 10 mM, 24 hours; second Klebsiella pneumoniae line (Table 1 order: Clinical strain)
Escherichia coli K12 = conditions: 10 mM, 24 hours; MG1655
[7] = tested on: Acanthamoebae castellanii; conditions: for labeling (fluorescence, metabolic incorporation of the chemical reporter): 10 mM, 24 hours, ATCC 30234; for assimilation by the microorganism (in words): Acanthamoebae castellanii
[8] = tested on: Klebsiella pneumoniae (first entry); conditions: 10 mM, 24 hours; first Klebsiella pneumoniae line (Table 1 order: CIP 101114)
Neisseria gonorrhoeae = conditions: for labeling (fluorescence, metabolic incorporation of the chemical reporter): 10 mM, 24 hours, CIP 79.18T; for assimilation by the microorganism (in words): Neisseria gonorrhoeae
Neisseria meningitides = conditions: 10 mM, 24 hours; CIP 107858
Proteus mirabills = conditions: 10 mM, 24 hours; Clinical strain
[9] = tested on: Legionella pneumophila sg6; conditions: 10 mM, 24 hours; LG 0846 3022
[10] = tested on: Serratia marcescens (first entry); conditions: 10 mM, 24 hours; first Serratia marcescens line (Table 1 order: CIP 102446)
[11] = tested on: Salmonella typhimurium 12023; conditions: 10 mM, 24 hours; Laboratory strain
Staphylococcus aureus = conditions: for labeling (fluorescence, metabolic incorporation of the chemical reporter): 10 mM, 24 hours, Clinical strain; for assimilation by the microorganism (in words): Staphylococcus aureus
Providencia stuartii = conditions: 10 mM, 24 hours; Clinical strain
Geotrichum candidum = conditions: for labeling (fluorescence, metabolic incorporation of the chemical reporter): 10 mM, 24 hours, CNCM 1447-83; for assimilation by the microorganism (in words): Geotrichum candidum
[12] = tested on: Legionella pneumophila sg1 Paris; conditions: 10 mM, 24 hours; CIP 33152
Fusarium = conditions: for labeling (fluorescence, metabolic incorporation of the chemical reporter): 10 mM, 24 hours, CNCM 1149-76; for assimilation by the microorganism (in words): Fusarium
[13] = tested on: bacteria and Fungi as well as amoebas; experiment: Labeling of living microorganisms, overall statement on all tested strains; conditions: broad range of bacteria and Fungi as well as amoebas
[14] = tested on: Staphylococcus saprophyticus; conditions: 10 mM, 24 hours; Clinical strain
Enterococcus durans = conditions: 10 mM, 24 hours; Laboratory strain
Bacillus cereus paris = conditions: 10 mM, 24 hours; Laboratory strain
Streptococcus agalactiae = conditions: 10 mM, 24 hours; Clinical strain
[15] = tested on: Bacillus cereus (second entry); conditions: 10 mM, 24 hours; second Bacillus cereus line (Table 1 order: CIP 66.24T)
[16] = tested on: Bacillus cereus (first entry); conditions: 10 mM, 24 hours; first Bacillus cereus line (Table 1 order: Laboratory strain)

[N-]=[N+]=NC[C@@H](O)C1OC(O)(C(=O)O)CC(O)[C@H]1O (some centres unmarked) [Kdo-N3, reference compound]
+: labeling (fluorescence, metabolic incorporation of the chemical reporter) (Cronobacter sakazakii) | labeling (fluorescence, metabolic incorporation of the chemical reporter) [2] | labeling (fluorescence, metabolic incorporation of the chemical reporter) (Escherichia coli O86) | labeling (fluorescence, metabolic incorporation of the chemical reporter) [3] | labeling (fluorescence, metabolic incorporation of the chemical reporter) (Vibrio cholerae) | labeling (fluorescence, metabolic incorporation of the chemical reporter) (Acinetobacter baumannii) | labeling (fluorescence, metabolic incorporation of the chemical reporter) [4] | labeling (fluorescence, metabolic incorporation of the chemical reporter) [6] | labeling (fluorescence, metabolic incorporation of the chemical reporter) (Escherichia coli K12) | labeling (fluorescence, metabolic incorporation of the chemical reporter) [8] | labeling (fluorescence, metabolic incorporation of the chemical reporter) (Neisseria meningitides) | labeling (fluorescence, metabolic incorporation of the chemical reporter) (Proteus mirabills) | labeling (fluorescence, metabolic incorporation of the chemical reporter) [9] | labeling (fluorescence, metabolic incorporation of the chemical reporter) [10] | labeling (fluorescence, metabolic incorporation of the chemical reporter) [11] | labeling (fluorescence, metabolic incorporation of the chemical reporter) (Providencia stuartii) | labeling (fluorescence, metabolic incorporation of the chemical reporter) [12]
did not assimilate: assimilation by the microorganism (in words) (Staphylococcus epidermis; Staphylococcus epidermis) | assimilation by the microorganism (in words) [1] | assimilation by the microorganism (in words) (Micrococcus luteus) | assimilation by the microorganism (in words) (Aspergillus niger) | assimilation by the microorganism (in words) (Candida albicans) | assimilation by the microorganism (in words) (Bacillus subtilis) | assimilation by the microorganism (in words) (Enterococcus faecalis) | assimilation by the microorganism (in words) [5] | assimilation by the microorganism (in words) [7] | assimilation by the microorganism (in words) (Neisseria gonorrhoeae) | assimilation by the microorganism (in words) (Staphylococcus aureus) | assimilation by the microorganism (in words) (Geotrichum candidum) | assimilation by the microorganism (in words) (Fusarium)
−: labeling (fluorescence, metabolic incorporation of the chemical reporter) (Staphylococcus epidermis) | labeling (fluorescence, metabolic incorporation of the chemical reporter) [1] | labeling (fluorescence, metabolic incorporation of the chemical reporter) (Micrococcus luteus) | labeling (fluorescence, metabolic incorporation of the chemical reporter) (Aspergillus niger) | labeling (fluorescence, metabolic incorporation of the chemical reporter) (Candida albicans) | labeling (fluorescence, metabolic incorporation of the chemical reporter) (Bacillus subtilis) | labeling (fluorescence, metabolic incorporation of the chemical reporter) (Enterococcus faecalis) | labeling (fluorescence, metabolic incorporation of the chemical reporter) [5] | labeling (fluorescence, metabolic incorporation of the chemical reporter) [7] | labeling (fluorescence, metabolic incorporation of the chemical reporter) (Neisseria gonorrhoeae) | labeling (fluorescence, metabolic incorporation of the chemical reporter) (Staphylococcus aureus) | labeling (fluorescence, metabolic incorporation of the chemical reporter) (Geotrichum candidum) | labeling (fluorescence, metabolic incorporation of the chemical reporter) (Fusarium)

[N-]=[N+]=NC[C@H]1OC(O)[C@@H](O)[C@@H]1O (stereo partly drawn) [Ara-N3, 5-Azido-5-deoxy-D-arabinofuranose]
+: labeling (fluorescence, metabolic incorporation of the chemical reporter) (Staphylococcus epidermis) | labeling (fluorescence, metabolic incorporation of the chemical reporter) [1] | labeling (fluorescence, metabolic incorporation of the chemical reporter) (Cronobacter sakazakii) | labeling (fluorescence, metabolic incorporation of the chemical reporter) (Micrococcus luteus) | labeling (fluorescence, metabolic incorporation of the chemical reporter) (Aspergillus niger) | labeling (fluorescence, metabolic incorporation of the chemical reporter) [2] | labeling (fluorescence, metabolic incorporation of the chemical reporter) (Escherichia coli O86) | labeling (fluorescence, metabolic incorporation of the chemical reporter) [3] | labeling (fluorescence, metabolic incorporation of the chemical reporter) (Candida albicans) | labeling (fluorescence, metabolic incorporation of the chemical reporter) (Bacillus subtilis) | labeling (fluorescence, metabolic incorporation of the chemical reporter) (Vibrio cholerae) | labeling (fluorescence, metabolic incorporation of the chemical reporter) (Acinetobacter baumannii) | labeling (fluorescence, metabolic incorporation of the chemical reporter) [4] | labeling (fluorescence, metabolic incorporation of the chemical reporter) (Enterococcus faecalis) | labeling (fluorescence, metabolic incorporation of the chemical reporter) [14] | labeling (fluorescence, metabolic incorporation of the chemical reporter) [5] | labeling (fluorescence, metabolic incorporation of the chemical reporter) [6] | labeling (fluorescence, metabolic incorporation of the chemical reporter) (Escherichia coli K12) | labeling (fluorescence, metabolic incorporation of the chemical reporter) [7] | labeling (fluorescence, metabolic incorporation of the chemical reporter) [8] | labeling (fluorescence, metabolic incorporation of the chemical reporter) (Enterococcus durans) | labeling (fluorescence, metabolic incorporation of the chemical reporter) (Neisseria gonorrhoeae) | labeling (fluorescence, metabolic incorporation of the chemical reporter) (Neisseria meningitides) | labeling (fluorescence, metabolic incorporation of the chemical reporter) (Bacillus cereus paris) | labeling (fluorescence, metabolic incorporation of the chemical reporter) (Proteus mirabills) | labeling (fluorescence, metabolic incorporation of the chemical reporter) (Streptococcus agalactiae) | labeling (fluorescence, metabolic incorporation of the chemical reporter) [9] | labeling (fluorescence, metabolic incorporation of the chemical reporter) [10] | labeling (fluorescence, metabolic incorporation of the chemical reporter) [11] | labeling (fluorescence, metabolic incorporation of the chemical reporter) (Staphylococcus aureus) | labeling (fluorescence, metabolic incorporation of the chemical reporter) (Providencia stuartii) | labeling (fluorescence, metabolic incorporation of the chemical reporter) (Geotrichum candidum) | labeling (fluorescence, metabolic incorporation of the chemical reporter) [12] | labeling (fluorescence, metabolic incorporation of the chemical reporter) (Fusarium) | labeling (fluorescence, metabolic incorporation of the chemical reporter) [15] | labeling (fluorescence, metabolic incorporation of the chemical reporter) [16]
assimilated: assimilation by the microorganism (in words) [1] | assimilation by the microorganism (in words) (Micrococcus luteus) | assimilation by the microorganism (in words) (Aspergillus niger) | assimilation by the microorganism (in words) (Candida albicans) | assimilation by the microorganism (in words) (Bacillus subtilis) | assimilation by the microorganism (in words) (Enterococcus faecalis) | assimilation by the microorganism (in words) [5] | assimilation by the microorganism (in words) [7] | assimilation by the microorganism (in words) (Neisseria gonorrhoeae) | assimilation by the microorganism (in words) (Staphylococcus aureus) | assimilation by the microorganism (in words) (Geotrichum candidum) | assimilation by the microorganism (in words) (Fusarium)
all tested microorganisms were labeled: labeling of all tested microorganisms (in words) [13]
